# Experimental data from US20040209777A1, “Agents for improving the qualities of fruits/grains” (priority 2001, published 2004).
# Read-outs that look alike come from different tables or passages of the source.
# Key:
# Japanese pear “Kousui” [1] = test system: Japanese pear “Kousui”
# Protocol: Regarding the sugar concentration of fruits, the sugar content (Brix) of the fruits harvested on August 24 of the year. The content of the individual sugar species was measured by selecting 10 fruits from each section to obtain fruit juices prepared by pressing the fruits, filtering each juice with a membrane filter having a 0.45 μm diameter, and then, quantifying the sugar content for every sugar species by HPLC (Column: “Shim-pack SCR-101C”, Column temperature: 80° C., Solvent: water (1 mL/min); and Detector: RI).
# Japanese pear “Kousui” [2] = details: observed on February 5
# Protocol: The flower bud differentiation rate was surveyed by observing winter buds with the unaided eye for each of long fruiting branches and short fruiting branches for every section on February 5 of the next year. The flower bud differentiation rate was calculated as a proportion of the flower bud number (mixed flower buds) to the total winter bud number, provided that the last-year branch was regarded as 1 unit, to which branch a long fruiting branch or a short fruiting branch attached.
# Japanese pear “Kousui” [3] = details: average Score (+3 to −3) of sprayed product, non-sprayed product = Score 0
# Protocol: In this connection, the scores of the sprayed product shown in Table 5 were counted by the following way. I.e., this was carried out in a paired comparison method where the “non-sprayed product” was assigned to Score 0 (control), and the “sprayed product” was scored by 7-class evaluation consisting of Scores +3, +2, +1, 0, −1, −2, and −3, employing a plurality of panels. Next, average values of the results of scoring the “sprayed product” by the plurality of panels were calculated and the average values were assigned to the Scores of the “sprayed product” in Table 5.
# [4] = test system: adult grape tree (cultivar Cabernet sauvignon)
# Protocol: The aqueous proline solution, which had been prepared by dissolving the high purity proline as described above into water to provide a 200 ppm concentration and adding 10 mL of “ATLOX BI” (wetting agent) thereto, was sprayed on the adult grape tree (cultivar Cabernet sauvignon) with an interval of 15 days during the period from the end of June to the middle of September in a year, which is the véraison period as the fruit growing period.
# The sprayed amount was a certain amount to allow the solution to drop down from the leaf surfaces. The control section was assigned to another non-sprayed adult tree. Both the test section and the control section were harvested on October 25 in that year to analyze sweetness and a red-colored state. Sweetness was evaluated in terms of the sugar content (Brix) of a juice prepared by mixing and pulverizing seed-removed fruits and pericarps. Colored state (red) was evaluated by measuring a light absorbance of the juice at 522 nm.
# According to the market evaluation for a grape cultivar for red wine and a red grape cultivar such as Kyohou, the stronger the coloration (red) of the pericarp is, the better the quality is.
# Japanese pear “Kousui” [5] = test system: Japanese pear “Kousui”; remark: listed apart in the source
# [6] = pear fruit juice, harvested on August 24, HPLC, n = 10
# [7] = grape juice, harvested October 25, 200 ppm proline sprayed every 15 days
compound,measurement,setting,value
"O=C(O)[C@@H]1CCCN1 [proline, L-proline]",Fructose content in the fruits,Japanese pear “Kousui” [1]; [6],56.74 mg/mL
same,Glucose content in the fruits,Japanese pear “Kousui” [1]; [6],18.67 mg/mL
same,Sorbitol content in the fruits,Japanese pear “Kousui” [1]; [6],28.83 mg/mL
same,Sucrose content in the fruits,Japanese pear “Kousui” [1]; [6],62.09 mg/mL
same,Total individual sugar contents in the fruits,Japanese pear “Kousui” [1]; [6],166.12 mg/mL
same,Sugar content (Brix),"Japanese pear “Kousui” [1]; pear fruits harvested on August 24, 200 ppm proline sprayed",11.7 ± 0.1 Brix
same,pericarp color,"Japanese pear “Kousui” [1]; pear fruits harvested on August 24, proline-treated section",somewhat red pericarp
same,flower bud differentiation rate,"Japanese pear “Kousui” [2]; long fruiting branch, Total",39.83%
same,flower bud differentiation rate,"Japanese pear “Kousui” [2]; long fruiting branch, Tree No. 1",40.60%
same,flower bud differentiation rate,"Japanese pear “Kousui” [2]; long fruiting branch, Tree No. 2",39.05%
same,flower bud differentiation rate,"Japanese pear “Kousui” [2]; short fruiting branch, Total",39.38%
same,flower bud differentiation rate,"Japanese pear “Kousui” [2]; short fruiting branch, Tree No. 1",40.83%
same,flower bud differentiation rate,"Japanese pear “Kousui” [2]; short fruiting branch, Tree No. 2",37.93%
same,Apparent color,Japanese pear “Kousui” [3],0.06
same,Comprehensive evaluation,Japanese pear “Kousui” [3],0.74
same,Hardness,Japanese pear “Kousui” [3],−0.13
same,Juiciness,Japanese pear “Kousui” [3],0.02
same,Preferableness of sourness,Japanese pear “Kousui” [3],−0.06
same,Preferableness of sweetness,Japanese pear “Kousui” [3],0.43
same,Preferableness of whole aroma,Japanese pear “Kousui” [3],0.64
same,Preferableness of whole feeling upon eating,Japanese pear “Kousui” [3],0.31
same,Preferableness of whole flavor,Japanese pear “Kousui” [3],0.50
same,Preferableness of whole taste,Japanese pear “Kousui” [3],0.61
same,Strength of sourness,Japanese pear “Kousui” [3],−0.19
same,Strength of sweetness,Japanese pear “Kousui” [3],0.95
same,Strength of whole aroma,Japanese pear “Kousui” [3],0.26
same,Strength of whole flavor,Japanese pear “Kousui” [3],0.57
same,Strength of whole taste,Japanese pear “Kousui” [3],0.79
same,Tongue feeling,Japanese pear “Kousui” [3],−0.19
same,Unripe flavor,Japanese pear “Kousui” [3],−0.41
same,Colored degree (OD at 522 nm),[4]; [7],0.14 OD at 522 nm
same,Sugar content (Brix),[4]; [7],20.3 Brix
same,increment of anthocyanin content in the juice,"[4]; grape juice, proline-sprayed section vs control section",about 20%
same,difference in the size of fruits,"[4]; grape, proline-sprayed section vs control section",No difference
same,drug damage caused by spraying,"Japanese pear “Kousui” [5]; Japanese pear “Kousui”, 200 ppm proline sprayed on leaves",any drug damage caused by spraying has not been observed
same,Harvested number of pears,"Japanese pear “Kousui” [5]; Total of all fruit sizes, Total of harvest days, 200 ppm proline sprayed on leaves",638
same,Harvested number of pears,"Japanese pear “Kousui” [5]; Total of all fruit sizes, harvest day August 18, 200 ppm proline sprayed on leaves",130
same,Harvested number of pears,"Japanese pear “Kousui” [5]; Total of all fruit sizes, harvest day August 21, 200 ppm proline sprayed on leaves",185
same,Harvested number of pears,"Japanese pear “Kousui” [5]; Total of all fruit sizes, harvest day August 24, 200 ppm proline sprayed on leaves",323
same,Harvested number of pears,"Japanese pear “Kousui” [5]; fruit size 2L, Total of harvest days, 200 ppm proline sprayed on leaves",115
same,Harvested number of pears,"Japanese pear “Kousui” [5]; fruit size 2L, harvest day August 18, 200 ppm proline sprayed on leaves",33
same,Harvested number of pears,"Japanese pear “Kousui” [5]; fruit size 2L, harvest day August 21, 200 ppm proline sprayed on leaves",46
same,Harvested number of pears,"Japanese pear “Kousui” [5]; fruit size 2L, harvest day August 24, 200 ppm proline sprayed on leaves",36
same,Harvested number of pears,"Japanese pear “Kousui” [5]; fruit size 3L, Total of harvest days, 200 ppm proline sprayed on leaves",233
same,Harvested number of pears,"Japanese pear “Kousui” [5]; fruit size 3L, harvest day August 18, 200 ppm proline sprayed on leaves",46
same,Harvested number of pears,"Japanese pear “Kousui” [5]; fruit size 3L, harvest day August 21, 200 ppm proline sprayed on leaves",64
same,Harvested number of pears,"Japanese pear “Kousui” [5]; fruit size 3L, harvest day August 24, 200 ppm proline sprayed on leaves",123
same,Harvested number of pears,"Japanese pear “Kousui” [5]; fruit size 4L, Total of harvest days, 200 ppm proline sprayed on leaves",160
same,Harvested number of pears,"Japanese pear “Kousui” [5]; fruit size 4L, harvest day August 18, 200 ppm proline sprayed on leaves",25
same,Harvested number of pears,"Japanese pear “Kousui” [5]; fruit size 4L, harvest day August 21, 200 ppm proline sprayed on leaves",32
same,Harvested number of pears,"Japanese pear “Kousui” [5]; fruit size 4L, harvest day August 24, 200 ppm proline sprayed on leaves",103
same,Harvested number of pears,"Japanese pear “Kousui” [5]; fruit size 5L, Total of harvest days, 200 ppm proline sprayed on leaves",31
same,Harvested number of pears,"Japanese pear “Kousui” [5]; fruit size 5L, harvest day August 18, 200 ppm proline sprayed on leaves",0
same,Harvested number of pears,"Japanese pear “Kousui” [5]; fruit size 5L, harvest day August 21, 200 ppm proline sprayed on leaves",4
same,Harvested number of pears,"Japanese pear “Kousui” [5]; fruit size 5L, harvest day August 24, 200 ppm proline sprayed on leaves",27
same,Harvested number of pears,"Japanese pear “Kousui” [5]; fruit size L, Total of harvest days, 200 ppm proline sprayed on leaves",55
same,Harvested number of pears,"Japanese pear “Kousui” [5]; fruit size L, harvest day August 18, 200 ppm proline sprayed on leaves",19
same,Harvested number of pears,"Japanese pear “Kousui” [5]; fruit size L, harvest day August 21, 200 ppm proline sprayed on leaves",18
same,Harvested number of pears,"Japanese pear “Kousui” [5]; fruit size L, harvest day August 24, 200 ppm proline sprayed on leaves",18
same,Harvested number of pears,"Japanese pear “Kousui” [5]; fruit size M, Total of harvest days, 200 ppm proline sprayed on leaves",20
same,Harvested number of pears,"Japanese pear “Kousui” [5]; fruit size M, harvest day August 18, 200 ppm proline sprayed on leaves",0
same,Harvested number of pears,"Japanese pear “Kousui” [5]; fruit size M, harvest day August 21, 200 ppm proline sprayed on leaves",11
same,Harvested number of pears,"Japanese pear “Kousui” [5]; fruit size M, harvest day August 24, 200 ppm proline sprayed on leaves",9
same,Harvested number of pears,"Japanese pear “Kousui” [5]; fruit size S, Total of harvest days, 200 ppm proline sprayed on leaves",24
same,Harvested number of pears,"Japanese pear “Kousui” [5]; fruit size S, harvest day August 18, 200 ppm proline sprayed on leaves",7
same,Harvested number of pears,"Japanese pear “Kousui” [5]; fruit size S, harvest day August 21, 200 ppm proline sprayed on leaves",10
same,Harvested number of pears,"Japanese pear “Kousui” [5]; fruit size S, harvest day August 24, 200 ppm proline sprayed on leaves",7
same,ripening of fruits (fruit number for every harvest day),Japanese pear “Kousui” [5]; proline-treated section vs control section,fruits ripened earlier as a tendency
